Data taken from PMC3764026, “Adaptive Evolution of Escherichia coli to an α-Peptide/β-Peptoid Peptidomimetic Induces Stable Resistance” (PLoS ONE, 2013).
≈ marks a conversion by molar mass, not a printed value. Where “and” joins values, the source holds several entries; their conditions need not be identical. Identical values can stand only once. Like-named read-outs stand apart in the source and are kept apart here.

Columns and labels:
[1] = test system: E. coli ATCC 25922 control lineages; format: cell-based, Escherichia coli; settings: two technical duplicates; for MIC against peptidomimetic 1 after selection: MHB
Experimental: (§1) Continuous selection of resistance was performed for peptidomimetic 1 (Figure 1) and for the clinically relevant natural antimicrobial peptide, polymyxin B. A bacterial suspension of a single colony of E. coli ATCC 25922 was re-inoculated (10 µl) five times in unsupplemented MHB (990 µl). It was then re-inoculated in MHB supplemented with peptidomimetic 1 (ten lineages) or polymyxin B (ten lineages), and after ten re-inoculations at constant peptidomimetic or polymyxin B concentration, the concentrations were doubled. […] Four lineages grown in MHB with MilliQ water were included as control. Re-inoculations were performed twice a day, but were reduced to once a day when growth was slower as assessed by turbidity of the cultures. The total number of passages (supplemented with peptidomimetic/AMP) was 77 times equivalent to approx. 500 generations. For each increase in concentration the lineages were preserved as freezing stocks. Ten colony isolates were randomly selected from each lineage population at 32×MIC and preserved as freezing stocks.
(§2) MIC was determined by using the micro-dilution method according to guidelines of the Clinical and Laboratory Standards Institute. Peptidomimetic 1 and erythromycin 1∶2 serial dilutions were prepared from 1024 µg/mL stock solutions to give a final range of 512-0.5 µg/mL in the wells. Ampicillin 1∶2 serial dilutions were prepared from a 256 µg/mL stock solution to give a final range of 128-0.13 µg/mL in the wells. Polymyxin B and gentamicin 1∶2 serial dilutions were prepared from a 64 µg/mL stock solution to give a final range of 32-0.03 µg/mL in the wells. Also, 1∶2 serial dilutions of the AMPs KR-12, IsCTp, melittin and PEP-1-K were prepared from 64 µg/mL stock solutions to give a final range of 32-0.03 µg/mL in the wells; however this was performed in 1% peptone instead of in MHB since activity was drastically diminished in the latter (not shown).
(§3) The population lineages were tested for their susceptibility towards peptidomimetic 1, polymyxin B, gentamicin and ampicillin. Single-culture isolates selected from these populations were additionally tested against peptidomimetic 1, polymyxin B, erythromycin and the five reference AMPs. To estimate the level of cross-resistance to closely related peptidomimetics, MIC determinations were performed for peptidomimetics 2 and 3 (Figure 1) towards selected isolates. The bacterial suspensions were grown overnight in MHB at 37°C for determination of the population MIC, or individual isolates were grown overnight on non-selective BHI agar at 37°C. […] In all experiments, bacterial cells were suspended in 0.9% saline to give a turbidity of 0.13 at OD546 (approximately 1×10^8 CFU/mL) and diluted in MHB pH 7.4 to a final concentration of 5×10^5 CFU/mL in each well. Polypropylene plates (Nunc 442587) were used to minimize peptide binding, and the incubation time was 18–20 hours at 37°C. Incubation time was additionally extended up to 44 hours for the individual isolates due to a potential effect of growth rate on the outcome, but no effect was seen of this (not shown). MIC was found in a minimum of two technical (population MIC) or biological (isolate MIC) replicates as the lowest concentration of the AMP or antibiotic where no visible growth was observed.
(§4) Frozen stocks were reconditioned in unsupplemented MHB media for five transfers (∼35 generations) at 37°C. The heritability of resistance was established through MIC determination of bacterial populations as described above.

[2] = test system: E. coli ATCC 25922 lineages adapted to peptidomimetic 1; format: cell-based, Escherichia coli; settings: two technical duplicates; for MIC against peptidomimetic 1 after selection: MHB pH 7.4, 37°C, 18–20 h
Experimental: as §1, §2, §3, §4

[3] = test system: E. coli ATCC 25922 lineages adapted to polymyxin B; format: cell-based, Escherichia coli; settings: polymyxin B-exposed lineages, ~35 generations unsupplemented; became similar to controls; not shown
Experimental: as §1, §2, §3, §4

[4] = test system: Escherichia coli ATCC 25922; test: Continuous selection experiment; format: cell-based
Experimental: as §1

CC(=O)N[C@@H](CCCCNC(=N)N)C(=O)N(CCC(=O)N[C@@H](CCCCNC(=N)N)C(=O)N(CCC(=O)N[C@@H](CCCCNC(=N)N)C(=O)N(CCC(=O)N[C@@H](CCCCNC(=N)N)C(=O)N(CCC(=O)N[C@@H](CCCCNC(=N)N)C(=O)N(CCC(=O)N[C@@H](CCCCNC(=N)N)C(=O)N(CCC(N)=O)[C@@H](C)c1ccccc1)[C@@H](C)c1ccccc1)[C@@H](C)c1ccccc1)[C@@H](C)c1ccccc1)[C@@H](C)c1ccccc1)[C@@H](C)c1ccccc1 [peptidomimetic 1]
MIC against peptidomimetic 1 after 35 generations w/o selection ([1]; Control 1 lineage (MilliQ water)): 16 to 32 µg/mL
MIC against peptidomimetic 1 after selection ([1]; Control 1 lineage (MilliQ water, no peptidomimetic)): 32 µg/mL (≈ 15 µM)
MIC against peptidomimetic 1 after 35 generations w/o selection ([1]; Control 2 lineage (MilliQ water)): 8 µg/mL (≈ 3.75 µM)
MIC against peptidomimetic 1 after selection ([1]; Control 2 lineage (MilliQ water, no peptidomimetic)): 8 µg/mL (≈ 3.75 µM)
MIC against peptidomimetic 1 after 35 generations w/o selection ([2]; peptidomimetic-exposed lineage 1, five passages in unsupplemented MHB): 128 to 256 µg/mL
MIC against peptidomimetic 1 after 35 generations w/o selection ([2]; peptidomimetic-exposed lineage 2, five passages in unsupplemented MHB): 256 µg/mL (≈ 120 µM)
MIC against peptidomimetic 1 after selection ([2]; peptidomimetic-exposed lineage 2, population outgrown at 32×wt MIC): 256 µg/mL (≈ 120 µM)
MIC against peptidomimetic 1 after 35 generations w/o selection ([2]; peptidomimetic-exposed lineage 3, five passages in unsupplemented MHB): 128 µg/mL (≈ 60 µM)
MIC against peptidomimetic 1 after 35 generations w/o selection ([2]; peptidomimetic-exposed lineage 4, five passages in unsupplemented MHB): 128 µg/mL (≈ 60 µM)
MIC against peptidomimetic 1 after selection ([2]; peptidomimetic-exposed lineage 4, population outgrown at 32×wt MIC): 256 µg/mL (≈ 120 µM)
MIC against peptidomimetic 1 after 35 generations w/o selection ([2]; peptidomimetic-exposed lineage 5, five passages in unsupplemented MHB): 128 µg/mL (≈ 60 µM)
MIC against peptidomimetic 1 after selection ([2]; peptidomimetic-exposed lineage 5, population outgrown at 32×wt MIC): 128 µg/mL and 64 to 128 µg/mL
MIC against peptidomimetic 1 after 35 generations w/o selection ([2]; peptidomimetic-exposed lineage 6, five passages in unsupplemented MHB): 64 to 128 µg/mL
MIC against peptidomimetic 1 after 35 generations w/o selection ([2]; peptidomimetic-exposed lineage 7, five passages in unsupplemented MHB): 128 µg/mL (≈ 60 µM)
MIC against peptidomimetic 1 after selection ([2]; peptidomimetic-exposed lineage 7, population outgrown at 32×wt MIC): 128 µg/mL (≈ 60 µM)
MIC against peptidomimetic 1 after 35 generations w/o selection ([2]; peptidomimetic-exposed lineage 8, five passages in unsupplemented MHB): 32 to 64 µg/mL
MIC against peptidomimetic 1 after 35 generations w/o selection ([2]; peptidomimetic-exposed lineage 9, five passages in unsupplemented MHB): 128 µg/mL (≈ 60 µM)
MIC against peptidomimetic 1 after 35 generations w/o selection ([2]; peptidomimetic-exposed lineage 10, five passages in unsupplemented MHB): 32 µg/mL (≈ 15 µM)
MIC against peptidomimetic 1 after selection ([2]; peptidomimetic-exposed lineage 10, population outgrown at 32×wt MIC): 256 µg/mL (≈ 120 µM)
cross-resistance after removal of the selection pressure [3]: lost
lineages that eventually grew at 32×wt MIC ([4]; ten lineages per agent, from 1/16×wt MIC, doubled stepwise, 77 inoculations, approx. 500 generations, 32×wt MIC = 256 µg/mL peptidomimetic 1, 32 µg/mL polymyxin B): All ten
growth of unexposed control lineages at 4×wt MIC ([4]; two controls per agent, 32 µg/mL peptidomimetic 1 or 4 µg/mL polymyxin B): failed to grow
